Patent publication US7442706B2, “Methods for treating sarcopenia with a growth hormone secretagogue” (priority 2006, dated 2008)
Marks after values point to notes of the source that are not given here.

Legend:
[1] = Monitoring for adverse effects, PSA, mammograms, pap smears, routine laboratory tests; format: in vivo, human
Procedure: Healthy men and women 60 years and older were eligible to participate. A schematic of the study design and details of subject inclusion/exclusion criteria, screening, enrollment, and attrition are shown in FIG. 1. Volunteers were carefully screened by medical history and physical examination to rule out underlying disease and extensive laboratory testing was performed before and frequently throughout the study. Participants were asked to maintain their typical diet and exercise throughout the study and to report any illnesses, medical procedures or side effects. Annual mammograms and pap smears were performed in women and levels of prostate-specific antigen (PSA) were monitored in men.
(§1) In each of the 2 years, volunteers were seen monthly the first 3 months and every 3 months thereafter for a physical examination, documentation of medications and vital signs, routine laboratory tests and detailed questioning about possible side effects. Fasting blood glucose and hemoglobin Alc (HBAlc) were monitored for possible changes with MK-677 treatment, since increased blood glucose had been observed in previous studies (11;15).

[2] = test system: quadriceps muscle; conditions: canines during remobilization; cited from earlier work
[3] = Body composition: body weight, FFM, fat mass, ASM (4-compartment model, DXA), AVF and thigh muscle (CT); format: in vivo, human; conditions: for Mean Change in FFM from Baseline, 4-C / Mean Change in FFM from Baseline, DXA: n = 43
Procedure: This example presents the 6 and 12 mo (pivotal) body composition data in all subjects studied in a 2-yr crossover study. A total of 65 healthy older [60-81 yr; BMI 26.1±3 (19-35) kg/m^2] men and women on and off HRT (hormone replacement therapy) received MK-677 (⅔ of each group) or placebo in Yr 1. Total body fat mass, % fat, and fat-free mass (FFM) were determined every 6 mo over 2 yr using a 4-compartment (4-C) model, as well as dual energy x-ray absorptiometry (DXA, QDR 2000). 4-C model components: body weight and density (BodPod); total body water (D2O dilution); total bone mineral content (DXA). Data were analyzed by way of repeated measure ANCOVA with baseline response as the model covariate. P values and confidence limits were derived based on a Bonferroni two-sided experiment wise error rate 0.05; data shown are mean (upper and lower Bonferroni 95% CL).
Sixty-five healthy men and women (±HRT) ages 60-81 years were enrolled in a 2-year study of MK-677 (25 mg p.o. daily) or placebo. In addition to GH and IGF-I, the primary endpoints were fat-free mass (FFM), by 4-compartment model and DXA, and abdominal visceral fat (AVF) by CT. Secondary endpoints included isokinetic strength, function and quality of life (QoL); all endpoints were assessed at baseline and every 6 months, with frequent monitoring for adverse effects.
This NIH-funded study was approved by the General Clinical Research Center (GCRC) and the University of Virginia Institutional Review Boards. All subjects gave written informed consent. A two-year, double-blind, placebo-controlled modified crossover trial of once-daily administration of an oral GH secretogogue (MK-677, 25 mg) to healthy older adults was performed.
During the first year, subjects were randomized to MK-677 or placebo treatment. In each of 3 groups (23 men, 25 women on hormone replacement therapy (HRT) and 17 women not on HRT), ⅔ received MK-677 and ⅓ received placebo. At the end of year 1, the subjects who received placebo were switched to MK-677 treatment (N= 2/0 in year 2); subjects who received MK-677 for the first year were randomized to continue MK-677 (N=20) or to placebo (N=19).
Body Composition. The effects of treatment on FFM and total body fat were evaluated by two independent methods: a 4-compartment (4-C) model (5); and dual x-ray absorptiometry (DXA). All subjects were scanned on the same Hologic QDR-2000 in pencil beam mode as previously described (6); all scans were read by a single observer (J. L. C.). Total appendicular skeletal muscle (lean) mass (TASM) from DXA was measured as the sum of the lean soft-tissue masses for the arms and the legs as described by Heymsfield et al. (7). Total and abdominal visceral fat (AVF), and subcutaneous fat areas (cm^2), as well as thigh muscle were measured by computed tomography (CT) ((8) and all scans were read by a single observer (J. L. C.)
The two primary endpoints for this study are: 1) FFM, which is an important determinant of functional ability; and 2) AVF, which is the most important fat depot for cardiovascular risk. Based on a sample size of 60 subjects (40 randomized to MK-677 and 20 to placebo in year 1), this cross-over study was designed to have at least 90% power to detect a 4.1% or greater between-group difference in the change in percent FFM, with the same power to detect a 12.6% or greater between-group difference in the change in AVF (cm^2) after the initial 12-months of treatment. The sample size formula for two-sample Student's t-test was used to conduct the power analysis. The standard deviations used in the power calculations were 4.4% for percent FFM and 14.1% for AVF. Both power calculations reflect the power of a two-sided test with a type I error rate of 0.05.
The primary outcome data for the 6- and 12-month changes in FFM and AVF as well as for IGF-I and GH were analyzed via repeated measures ANCOVA. […]

[4] = test system: GH; conditions: healthy older men and women; 25 mg p.o. daily; cited from earlier work
[5] = orally active; cited from earlier work
[6] = Glucose metabolism: insulin sensitivity by Quicki, hemoglobin A1c; format: in vivo, human
Procedure: Assays and Insulin Sensitivity. Plasma glucose was measured on a Beckman analyzer and insulin and total IGF-I were measured in the GCRC Core Laboratory on an Immulite 2000 (Diagnostic Products Corporation, Los Angeles, Calif.). Additional safety laboratory tests were performed by standard methods in the UVA Clinical Laboratories. Fasting insulin and glucose were used to estimate insulin sensitivity by the Quicki method (4).
as §1

[7] = 6 mo, 25 mg p.o. daily, mean (Bonferroni 95% CL)
[8] = 12 mo, 25 mg p.o. daily, methanesulfonate

CC(C)(N)C(=O)N[C@H](COCc1ccccc1)C(=O)N1CCC2(CC1)CN(S(C)(=O)=O)c1ccccc12.CS(=O)(=O)O [MK-677, N-[1(R)-[(1,2-dihydro-1-methanesulfonylspiro[3H-indole-3,4′-piperidin]-1′-yl)carbonyl]-2-(phenylmethyloxy)ethyl]-2-amino-2-methylpropanamide methanesulfonate]
serious side effects ([1]; daily treatment): without serious side effects | mammograms, pap smears, routine laboratory tests ([1]; during the 2 years of the study): no changes | time for appetite to return to normal ([1]; in about one-half the subjects): ≤ 3 months | PSA levels ([1]; men): declined significantly | transient muscle pain, subjects reporting ([1]; placebo 2/22): 14/43 | mild, transient edema, subjects reporting ([1]; placebo 6/22): 19/43 | increase in appetite, subjects reporting ([1]; placebo 8/22): 29/43 | Joint pain, subjects reporting ([1]; placebo 17/22): 25/43 | serum insulin-like growth factor-1 levels [2]: elevated levels of serum insulin-like growth factor-1 | size and strength of the quadriceps muscle [2]: increased the size and strength of the quadriceps muscle | increase in appendicular skeletal muscle compared to placebo ([3]; 25 mg orally daily, over the first year): 1.6 kg | Total ASM change from baseline and vs. placebo ([3]; 6 and 12 months, DXA): significantly increased | Estimated Difference in Change (MK-677 vs Placebo), Body Wt ([3]; 6 mo, 25 mg p.o. daily): 2.3 (0.8-3.8)*** kg | Estimated Difference in Change (MK-677 vs Placebo), FFM, 4-C ([3]; 6 mo, 25 mg p.o. daily): 1.28 (0.21-2.36)* kg | Estimated Difference in Change (MK-677 vs Placebo), FFM, DXA ([3]; 6 mo, 25 mg p.o. daily): 1.15 (0.28-2.02)** kg | Mean Change in FFM from Baseline, 4-C [3, 7]: 1.12 (0.48-1.75) kg | Mean Change in FFM from Baseline, DXA [3, 7]: 0.98 (0.47-1.48) kg | Total body weight increase ([3]; 6 months, 25 mg p.o. daily, placebo 0.7 kg): 3.1 kg | Estimated Difference in Change (MK-677 vs Placebo), Body Wt ([3]; 12 mo, 25 mg p.o. daily): 1.9 (0.5-3.4)** kg | Estimated Difference in Change (MK-677 vs Placebo), FFM, 4-C ([3]; 12 mo, 25 mg p.o. daily): 1.64 (0.56-2.71)** kg | Estimated Difference in Change (MK-677 vs Placebo), FFM, DXA ([3]; 12 mo, 25 mg p.o. daily): 1.54 (0.67-2.41)*** kg | Mean Change in FFM from Baseline, 4-C [3, 8]: 1.27 (0.64-1.90) kg | Mean Change in FFM from Baseline, DXA [3, 8]: 1.09 (0.58-1.59) kg | increase in thigh muscle area measured by CT vs. placebo ([3]; 12 months): did not reach statistical significance | Total body weight increase ([3]; 12 months, 25 mg p.o. daily, placebo 0.8): 2.7 kg | total body fat increase from baseline, DXA ([3]; 12 months, 25 mg p.o. daily, placebo 1.1 kg): 1.8 kg | mean AVF increase from baseline, CT ([3]; 12 months, 25 mg p.o. daily, placebo 4.2 cm^2): 8.4 cm^2 | Subcutaneous fat change from baseline ([3]; 12 months, CT): significantly increased from baseline | leg ASM change vs. baseline ([3]; 12 months, DXA): increased significantly | total body fat, difference between MK-677 and placebo groups ([3]; 12 months, DXA): no significant difference between groups | increase in FFM of the first year, in subjects treated for 2 yr ([3]; Yr 2, n=17, descriptive data): maintained | increase in FFM in subjects switched from MK-677 to placebo ([3]; yr 2, descriptive data): lost | IGF-I and pulsatile GH release, previously reported [4]: enhanced IGF-I and pulsatile GH release into the young adult normal range | diet-induced catabolism [5]: reverses diet-induced catabolism | Insulin resistance estimated by Quicki ([6]; after 6 and 12 months of treatment, vs. placebo): increased significantly | hemoglobin A1c levels ([6]; most subjects on MK-677): slight elevations
